Results reported in patent publication US20170037425A1, “METHOD FOR IMPROVING PLANT TRAIT” (SHANGHAI INSTITUTES FOR BIOLOGICAL SCIENCES, CHINESE …, priority 2012, published 2017).

How the values were obtained:
[1] = test system: Brassica; assay: Soluble protein content of transgenic Brassica; assay type: in vivo, Brassica napus L.; conditions: three lines
Procedure: In this invention, three lines of mCherry transgenic Brassica were selected and the content of soluble protein was measured and compared with that in WT. The content of soluble protein in mCherry transgenic Brassica was increased.

[2] = test system: Brassica; assay: Redox metabolites (NAD+/NADH, NADP+/NADPH, GSSG/GSH, ASC/DHA) in transgenic Brassica leaves; assay type: in vivo, Brassica napus L.; conditions: transgenic Brassica transferred from red+blue light to white light
Procedure: Leaves were from the 4-week-old Brassica plants grown under white light or red+blue light, or 2 h after being switched from red+blue light to white light. Extraction of metabolites from leaves and measurement of NAD^+/NADH, NADP^+/NADPH, GSSG/GSH and ASC/DHA follows G. Queval, G. Noctor, Anal Biochem. 363, 58 (2007).

[3] = test system: Rubisco; assay: Rubisco activity assay in transgenic Brassica leaves; assay type: in vivo, Brassica napus L.
Procedure: Ribulose-1,5-bisphosphate carboxylase/oxygenase (Rubisco) carboxylase activity assay: Soluble proteins were extracted from fresh leaves with extraction buffer (50 mM Tris-HCl pH 7.8, 1 mM EDTA, 50 mM NaCl, 2 mM β-Mercaptoethanol). The homogenate was centrifuged (12,000 g for 6 min at 4° C.) and the supernatant was used for Rubisco activity assay. Carboxylase activity of Rubisco was measured with ^14C-labelled method as described in (Wang Z Y, Snyder G W, Esau B D, Portis A R, Ogren W L (1992) Species-dependent variation in the interaction of substrate-bound ribulose-1,5-bisphosphate carboxylase/oxygenase (Rubisco) and Rubisco activase. Plant Physiology 100: 1858-1862).

[4] = test system: Brassica; assay: Stomatal conductance and intercellular CO2 concentration of transgenic Brassica; assay type: in vivo, Brassica napus L.
Procedure: (§1) Gas exchange was measured using photosynthetic infrared gas analysis system (LI-6400, Li-Cor Inc, Lincoln, Nebr., USA). The net photosynthetic rate (Pn) and stomatal conductance (Gs) was measured. Sunlight and artificial light were used as artificial light sources for measurement. The ambient CO2 during the measurements was controlled at 400 μmol mol^−1. The ambient temperature was controlled at the temperature for plant growth. Six leaves were measured for each line of plant.

[5] = test system: Brassica; assay: Net photosynthetic rate of transgenic Brassica; assay type: in vivo, Brassica napus L.; conditions: for net photosynthetic rate, increase compared with wild type: transgenic Brassica
Procedure: as §1, with “plant. In addition, for the CO2 response curve of the plant leaf, the light intensity was set at PPFD of 1500 μmol m^−2s^−1 with artificial light source. The Pn under 50-1200 ppm CO2 was measured.” for “plant.”

[6] = test system: Brassica; assay: Growth, biomass and yield of transgenic Brassica; assay type: in vivo, Brassica napus L.; conditions: for fresh and dry weights vs WT and empty vector control: 4-week-old transgenic Brassica; for plant growth vs WT and empty vector control: 3 weeks
Excerpt: FIG. 14. (A) WT, empty vector control (pHB) and mCherry transgenic Brassica (L1-L3) were germinated and grown for one week in the phytotron under white light (PPFD:250 μmol m^−2s^−1). Then the plants were moved and grown under white light, green light (PFD: 60 μmol m^−2s^−1) or red+blue light (red light PFD; 60 μmol m^−2s^−1, blue light PFD; 10 μmol m^−2s^−1) for another 3 weeks and photos were taken, (B) Comparison of the fresh weights and dry weights of WT and mCherry transgenic Brassica grown under white light, green light or red+blue light for four weeks. Values in the figures are means±SD, for WT, n=10, for transgenic plant transformed with empty vector control pHB and mCherry, data were the averages of three independent lines and 10 plants for each line. **p≦0.01. (C) Net photosynthetic rate of WT and mCherry transgenic Brassica measured under different light qualities. Nine-week-old WT and mCherry transgenic Brassica grown in the phytotron (PPFD: 250 μmol m^−2s^−1) were transferred and treated with different qualities of light for 4 days and net photosynthetic rate was measured. (D) Net photosynthetic rate of WT and mCherry transgenic Brassica grow in the natural field measured under different PPFD as light source. Net photosynthetic rate was measured in situ between 10:00 am and 12:00 pm. […] FIG. 15. (A) Measurement of the fresh weight and dry weight per plant of 7-week-old WT and mCherry transgenic Brassica plants grown in the natural field conditions. Values in the figures are means±SD, n=10. *p≦0.05, **p≦0.01. (B) Comparison of the plant size, silique size, seed size, grain yield per plant and 1000-seed weight at the harvesting time. Values in the figures are means±SD, n=10. *p≦0.05, **p≦0.01. Wild type (WT), transgenic Brassica with empty vector (pHB) and mCherry transgenic Brassica (L1-L3) were germinated in the phytotron under white light (light intensity: 250 μmol m^−2s^−1) for 1 week. Then the plants were transferred and continued to grow under white light, green light (light intensity: 60 μmol m^−2s^−1), red+blue light (intensity of red light: 60 μmol m^−2s^−1; intensity of blue light: 10 μmol m^−2s^−1). The […] were taken three weeks after transfer.

[7] = Electron donation by pre-illuminated LEAT protein (NAD+/NADP+ reduction); assay type: biochemical
Procedure: FIG. 1. The effects of light on NAD^+ or NAPD^+ reduction by YFP.
It was reported that proteins such as GFP can function as electron donor to reduce the oxidized small compounds such as NAD^+, potassium ferricyanide, and some proteins such as cytochrome c, and FAD-containing proteins (Bogdanov A. M. et al, 2009, Nature Chemical Biology. 5:459-461), The invertors used E. coli to express and purify recombinant proteins. […] Quinone reduction under light was analyzed by monitoring the decrease of absorption at 436 nm.

[8] = test system: Brassica; assay: Leaf absorption spectrum of transgenic Brassica; assay type: in vivo, Brassica napus L.; conditions: different light intensities
Procedure: Reflectance and transmittance of Brassica leaves under different light intensities were measured using fiber optic spectrometer with an integrating sphere (Ocean Optics, Britain). The absorbance of the leaves under different light intensities was calculated with the equation: absorbance=100%) (without leaf)−transmittance−reflectance.

[9] = transgenic Brassica, young seedling stage

Substance: mCherry: red fluorescent protein, amino acid sequence SEQ ID NO: 2
- content of soluble protein vs WT [1]: increased
- content of reduced metabolites or ratio of reduced to oxidized metabolites (NADH, NADPH, ascorbate, GSH) [2]: increased
- Rubisco activity and Rubisco activation state [3]: increased
- stomatal conductance (Gs) vs WT ([4]; transgenic Brassica): increased
- intercellular CO2 concentration (Ci) ([4]; transgenic Brassica leaves): did not lead to the decrease
- net photosynthesis rate vs WT ([5]; phytotron-grown transgenic Brassica, white light and green light): significantly increased
- net photosynthesis rate vs WT and empty vector ([5]; transgenic Brassica in natural field conditions, different light intensities): significantly increased
- net photosynthetic rate, increase compared with wild type ([5]; 400 μmol m^−2s^−1): 31%
- net photosynthetic rate, increase compared with wild type ([5]; 800 μmol m^−2s^−1): 28%
- net photosynthetic rate, increase compared with wild type ([5]; 1200 μmol m^−2s^−1): 16%
- fresh and dry weights vs WT and empty vector control ([6]; red+blue light): no significant difference
- fresh and dry weights vs WT and empty vector control ([6]; white or green light): significantly increased
- 1000-seed weight, increase vs WT ([6]; transgenic Brassica): 25%
- grain yield per plant, increase vs WT ([6]; transgenic Brassica): 30 to 100%
- 1000-seed weight vs WT (in words) ([6]; transgenic Brassica at harvest): increased
- grain yield per plant vs WT (in words) ([6]; transgenic Brassica at harvest): increased
- seed size vs WT ([6]; transgenic Brassica at harvest): significantly increased
- growth and biomass accumulation ([6]; transgenic Brassica, natural field conditions): stimulated the growth and biomass accumulation
- plant growth vs WT and empty vector control ([6]; transgenic Brassica, red+blue light): No significant difference
- plant growth vs WT and empty vector control ([6]; transgenic Brassica, white light and green light): grew better than WT and empty vector control plants
- dry weight, increase vs WT [6, 9]: 78%
- fresh weight, increase vs WT [6, 9]: 66.7%
- function as electron donor under light [7]: cannot continuously provide electrons under light
- light energy absorbed by leaves [8]: significantly increased
